Measurements from PubChem BioAssay (NCI).
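1) Cells in 96-well plates. 2) Compound, 48 h, 5 concentrations. 3) Linear interpolation between surrounding doses. 4) Unreached endpoint = highest concentration. GI50 marks 50% less growth. The concentration for full growth arrest is given as TGI.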

What was measured:
Test in all cases: growth of human tumour cells (NCI), 48 h
[1] = system: A549 NSCLC
[2] = system: CAKI-1 renal
[3] = system: HCT-15 colon
[4] = system: NCI-H23 lung
[5] = system: RPMI-8226 leukemia
[6] = system: SNB-19 CNS
[7] = system: SW-620 colon
[8] = system: U251 CNS
[9] = system: EKVX NSCLC
[10] = system: MALME-3M melanoma

Row | SMILES | TGI [1] [µM] | TGI [2] [µM] | TGI [3] [µM] | TGI [4] [µM] | TGI [5] [µM] | TGI [6] [µM] | TGI [7] [µM] | TGI [8] [µM] | TGI [9] [µM] | TGI [10] [µM] | GI50 [1] [µM] | GI50 [2] [µM] | GI50 [9] [µM] | GI50 [3] [µM] | GI50 [10] [µM] | GI50 [4] [µM] | GI50 [5] [µM] | GI50 [6] [µM] | GI50 [7] [µM] | GI50 [8] [µM]
1 | CCCCSCCC(N)P(=O)(O)O (stereo not drawn) | > 100 | > 100 | > 100 | > 100 | > 100 | > 100 | > 100 | > 100 |  |  |  |  |  |  |  |  |  |  |  | 
2 | OC1CCSc2ccccc21 (stereo not drawn) | > 100 | > 100 | > 100 | > 100 | > 100 | > 100 | > 100 | > 100 | > 100 | > 100 |  |  |  |  |  |  |  |  |  | 
3 | CS(=O)(=O)Nc1ccc(NCc2cnc3ccc4[nH]cccc4c23)cc1 | > 100 | 65 | > 100 | 59.6 | 31 | > 100 | > 100 | 68.9 | > 100 | 46.6 |  |  |  |  |  |  |  |  |  | 
4 | COc1ccc(-n2nc(C(=O)c3ccccc3)c3nn4c(=O)cc(-c5ccccc5)nc4nc32)cc1 | > 100 | > 100 | > 100 | > 100 | > 100 | > 100 | > 100 | > 100 | > 100 | > 100 | 39.2 | > 100 | 53.5 | 43.4 | 34.5 | 67.2 | 40 | 69.1 | 44.3 | 39.2
5 | Cc1cc(=O)[nH]c(S(=O)(=O)NC(=O)Nc2cccc(Cl)c2)n1 | > 100 | > 22.3 | > 100 | > 100 | > 100 | > 100 | > 100 | > 100 | > 100 | > 100 |  |  |  |  |  |  |  |  |  | 
6 | CN(C)c1ccc(/C=C2\C[C@H]3[C@@H]4CC=C5C[C@@H](O)CC[C@]5(C)[C@H]4CC[C@]3(C)[C@H]2O)cc1 | 38.6 |  | 39.7 | 35.6 | > 100 | 37.1 | 67.3 | 22.6 | 23.8 | 38.4 |  |  |  |  |  |  |  |  |  | 
7 | CC(NC(=O)c1ccc(OP(=O)(OCc2ccc([N+](=O)[O-])o2)N(C)CCCCCl)cc1)c1ccc(OCC2CCCCC2)c(C(N)=O)c1 (stereo not drawn) | > 21.4 | > 58 | 8.14 | > 52.2 | 3.24 | > 100 | > 43.1 | > 32.3 | > 100 | 10.7 |  |  |  |  |  |  |  |  |  | 
8 | O=S(C(c1ccccc1)=P(c1ccccc1)(c1ccccc1)c1ccccc1)c1ccc(Cl)cc1 (stereo not drawn) |  | > 100 | > 100 | > 100 | > 100 |  | > 100 | > 100 | > 100 |  |  |  |  |  |  |  |  |  |  | 
9 | CN(CCCNC(=O)c1nn(-c2ccccc2)c2c1Cc1ccccc1-2)CCCNC(=O)c1nn(-c2ccccc2)c2c1Cc1ccccc1-2 | 3.58 | 2.46 | 3.1 | 3.03 | 4.22 | 3.07 | 2.63 | 2.82 |  | 2.91 |  |  |  |  |  |  |  |  |  | 
10 | Oc1ccc(Cl)cc1C1=Nn2c(COc3ccc4c(c3)CCCC4)nnc2SC1 | 92.9 | 49.6 | 36.7 | 26.9 | 19.3 | 50.5 | 33 | 35.3 | 34.7 | > 100 |  |  |  |  |  |  |  |  |  | 
